Patent publication US11674962B2, “Therapeutic and diagnostic methods for cancer” (Genentech, Inc., priority 2017, dated 2023)

Tested on: treatment-naive, locally advanced or metastatic (stage IIIB-IVB) NSCLC
Assay: B-F1RST phase II trial (NCT02848651) interim analysis: efficacy of first-line atezolizumab by bTMB subgroup
Format: in vivo, human
Source text: The B-F1 RST (Clinical Trial ID No.: NCT02848651) patient population being evaluated for bTMB score consists of approximately 150 patients at 20 to 25 study sites (N=153). Patients are eligible for enrollment in the B-F1 RST study if they have treatment-naïve, locally advanced or metastatic (e.g., stage IIIB-IVB) NSCLC; measurable disease, as defined by RECIST v1.1; and an ECOG performance status of 0 or 1. Exclusion criteria include sensitizing EGFR mutations or ALK rearrangements; active brain metastases requiring treatment; leptomeningeal disease; other malignancies within 5 years of enrollment; HBV, HCV, or HIV infection; or history of autoimmune disorder. Participants are divided into cohorts based on bTMB score and receive atezolizumab at a dose of 1200 mg intravenously every three weeks. All patients undergo tumor assessment at baseline and every 6 weeks for the first 12 months following cycle 1, day 1, and then every 9 weeks therafter. Treatment with atezolizumab can be continued as long as participants were experiencing clinical benefit, i.e., in the absence of unacceptable toxicity or symptomatic deterioration attributed to disease progression. Tumor assessments continue until disease progression per RECIST v1.1 or loss of clinical benefit (investigator assessed), consent withdrawal, study discontinuation, study completion, or death. Mandatory blood samples are taken at baseline, during therapy, and at progression to evaluate changes in exploratory biomarkers. The interim analysis was prespecified to occur at 6 months after 50% of the patients have been enrolled, with a prespecified bTMB score of ≥16. The co-primary endpoints are the clinical efficacy of atezolizumab (as evaluated by investigator-assessed ORR per RECIST v1.1) and the relationship between bTMB and PFS benefit (as evaluated by investigator-assessed PFS per RECIST v1.1). The secondary objectives are safety and assessment of efficacy by investigator-assessed duration of response (DOR) and OS.
Of 78 treated patients in the interim analysis population (IAP) from the B-F1 RST study, 58 had adequate blood samples with sufficient detection of circulating tumor DNA (MSAF≥1%) and comprised the biomarker-evaluable population (BEP). One patient of the IAP was never treated and therefore not safety- or efficacy-evaluable. A bTMB score of 16 (prevalence, 19% [11/58]) was prespecified to evaluate clinical efficacy in the BEP (bTMB high, ≥16; bTMB low, <16). Statistical tests were 2-sided at a 0.1 level and 90% confidence interval.

[1] = bTMB cut-off score 12, BEP n = 58
[2] = bTMB cut-off score 14, BEP n = 58
[3] = bTMB cut-off score 16, BEP n = 58
[4] = bTMB cut-off score 20, BEP n = 58

## atezolizumab
B-F1RST interim analysis, BEP (n=58)
  disease control rate: 25.9%
B-F1RST interim analysis, BEP (n=58), RECIST v1.1
  ORR: 12.1%
B-F1RST interim analysis, bTMB high (≥16) vs low (<16)
  PFS HR (90% CI): 0.51
B-F1RST interim analysis, bTMB high (≥16), minimum follow-up of 6 months
  median PFS: 9.5 months
B-F1RST interim analysis, bTMB high (≥16), n=11
  ORR: 36.4%
B-F1RST interim analysis, bTMB high versus low groups
  ORR odds ratio (90% CI): 8.38
B-F1RST interim analysis, bTMB low (<16), minimum follow-up of 6 months
  median PFS: 2.8 months
B-F1RST interim analysis, bTMB low (<16), n=47
  ORR: 6.4%
BEP (n = 58)
  ORR per RECIST v.1.1: 12.1%
  PD per RECIST v.1.1: 37.9%
  PR per RECIST v.1.1: 12.1%
IAP (n = 78)
  ORR per RECIST v.1.1: 15.4%
  PD per RECIST v.1.1: 37.2%
  PR per RECIST v.1.1: 15.4%
[1]
  PFS Median, bTMB High: 3.0 (22) months
  PFS Median, bTMB Low: 3.2 (36) months
[2]
  PFS Median, bTMB High: 3.4 (14) months
  PFS Median, bTMB Low: 3.2 (44) months
[3]
  PFS Median, bTMB High: 9.5 (11) months
  PFS Median, bTMB Low: 2.8 (47) months
[4]
  PFS Median, bTMB High: 9.5 (8) months
  PFS Median, bTMB Low: 2.7 (50) months
bTMB high (n = 11)
  ORR per RECIST v.1.1: 36.4%
  PD per RECIST v.1.1: 36.4%
  PR per RECIST v.1.1: 36.4%
bTMB high (≥16) vs bTMB low (<16), Table 20
  PFS HR: 0.51
bTMB high (≥16), n = 11, BEP, first-line atezolizumab, minimum follow-up 6 months
  median PFS: 9.5 mo
bTMB high vs low at cut-off score 12, BEP n = 58
  PFS HR: 0.95
bTMB high vs low at cut-off score 14, BEP n = 58
  PFS HR: 0.73
bTMB high vs low at cut-off score 16, BEP n = 58, Table 21
  PFS HR: 0.49
bTMB high vs low at cut-off score 20, BEP n = 58
  PFS HR: 0.23
bTMB low (<16), n = 47, BEP, first-line atezolizumab, minimum follow-up 6 months
  median PFS: 2.8 mo
bTMB low (n = 47)
  ORR per RECIST v.1.1: 6.4%
  PD per RECIST v.1.1: 38.3%
  PR per RECIST v.1.1: 6.4%
